Values after ≈ are worked out from the molar mass of the structure shown. Like-named read-outs stand apart in the source and are kept apart here.

One data set concerns the target hNaMNAT-1 (Homo sapiens, UniProt Q9HAN9). The data set can be described thus: Human NAMNAT inhibition in vitro. Format: biochemical.
The test system of the next data set is HCC1937. The data set can be described thus: In vitro human breast cancer cell growth inhibition. Type of data set: cell-based. To be noted: HCC1937 cells, read-out: In Vitro Human Breast Cancer Inhibition (IC50, μM) HCC1937.
The test system of the next data set is MDA-MB-436. The data set is described as above. Format: cell-based. To be noted: MDA-MB-436 cells, read-out: In Vitro Human Breast Cancer Inhibition (IC50, μM) MDA-MB-436.
The test system of the next data set is SUM159. Described as above. Format: cell-based. To be noted: SUM159 cells, read-out: In Vitro Human Breast Cancer Inhibition (IC50, μM) SUM159.
Another data set has as its system IMR90. The data set is described as follows: In vitro inhibition of normal human cells. The note with it: IMR-90. Format: cell-based.
A further data set has as its system HEK293. The data set is described as follows: In vitro inhibition of normal human cells. Format: cell-based.
The next data set concerns BEAS-23. The data set can be described thus: In vitro inhibition of normal human cells. Format: cell-based. The note with it: read-out: In Vitro Inhibition Normal Human Cells (IC50, μM) BEAS-23.
The subject of the next data set is Hep-G2. The data set can be described thus: In vitro inhibition of normal human cells. Type of data set: cell-based. To be noted: HepG2.
For a further data set, the target named is B. anthracis NADs (Bacillus anthracis, UniProt Q81RP3). Type of data set: biochemical.
For data set [1], the system named is Bacillus anthracis Sterne. The data set can be described thus: microbe, parasite or virus in culture. Format: cell-based.
The subject of the next data set is B. anthracis. The data set can be described thus: microbe, parasite or virus in culture. Format: cell-based. To be noted: Bacillus anthracis, read-out: MIC (μg/mL) B. anthracis.
The test system of another data set is S. aureus. The data set is described as follows: microbe, parasite or virus in culture. To be noted: Staphylococcus aureus, read-out: MIC (μg/mL) S. aureus. Format: cell-based.
Another data set deals with E. faecalis. The data set is described as follows: microbe, parasite or virus in culture. Type of data set: cell-based. The note with it: Enterococcus faecalis, read-out: MIC (μg/mL) E. faecalis.
In the next data set the test system is B. cereus. The data set is described as follows: microbe, parasite or virus in culture. Type of data set: cell-based. The note with it: Bacillus cereus, read-out: MIC (μg/mL) B. cereus.
The next data set concerns S. aureus MRSA. The data set can be described thus: microbe, parasite or virus in culture. Type of data set: cell-based. The note with it: Staphylococcus aureus, read-out: MIC (μg/mL) S. aureus MRSA.
A further data set concerns E. faecium VRE. The data set can be described thus: microbe, parasite or virus in culture. The note with it: Enterococcus faecium, read-out: MIC (μg/mL) E. faecium VRE. Type of data set: cell-based.
Another data set has as its system S. pneumoniae. The data set is described as follows: microbe, parasite or virus in culture. Type of data set: cell-based. To be noted: Streptococcus pneumoniae, read-out: MIC (μg/mL) S. pneumoniae.
The nature of data set [2]: In vivo toxicity, maximum tolerated dose. The note with it: female, BALB/c, mouse, intraperitoneal.
The nature of data set [3]: Pharmacokinetics, plasma concentration after intraperitoneal injection.

Chain of B. anthracis NADs (Q81RP3 whole entry, looked up): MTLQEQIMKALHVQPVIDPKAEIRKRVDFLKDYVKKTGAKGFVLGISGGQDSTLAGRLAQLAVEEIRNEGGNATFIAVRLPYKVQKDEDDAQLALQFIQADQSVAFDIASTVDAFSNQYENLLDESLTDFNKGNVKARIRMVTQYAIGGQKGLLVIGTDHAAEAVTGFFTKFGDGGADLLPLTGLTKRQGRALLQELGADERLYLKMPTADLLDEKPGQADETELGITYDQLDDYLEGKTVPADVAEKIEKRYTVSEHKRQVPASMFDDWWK
Chain of hNaMNAT-1 (Q9HAN9 whole entry): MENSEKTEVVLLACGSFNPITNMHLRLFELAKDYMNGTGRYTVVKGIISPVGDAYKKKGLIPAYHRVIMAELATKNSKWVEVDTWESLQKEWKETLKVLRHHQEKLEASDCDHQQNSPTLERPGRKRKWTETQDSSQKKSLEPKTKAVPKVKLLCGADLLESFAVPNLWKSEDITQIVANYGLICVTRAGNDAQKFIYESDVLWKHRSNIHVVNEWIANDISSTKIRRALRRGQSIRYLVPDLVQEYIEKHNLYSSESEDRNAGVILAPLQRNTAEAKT

Usually IC50 stands for the midpoint of a concentration-inhibition curve. Regarding `O=[N+]([O-])c1cc(S(=O)(=O)NCc2ccco2)ccc1NNC(=S)Nc1cccc(C(F)(F)F)c1` [Compound 6034], the IC50 was determined as 28 µM against hNaMNAT-1; 60 µM with HCC1937; 70 µM in the data set with MDA-MB-436; 50 µM with SUM159; 148 µM with IMR90; 176 µM in the data set on HEK293. The IC50 in the data set on BEAS-23 worked out at 186 µM; in the data set with Hep-G2 it was 90 µM.
Take `O=C(Nc1ccc(S(=O)(=O)Nc2ccc(Cl)c(Cl)c2)cc1)Nc1ccccc1O` [Compound 6399]: the IC50 is 19 µM against hNaMNAT-1; 40 µM in the data set with HCC1937; 181 µM in the data set with IMR90; 163 µM with HEK293; 93 µM in the data set with BEAS-23; 84 µM in the data set with Hep-G2.
Regarding `Nc1ccc(NS(=O)(=O)c2ccc(NC(=O)Nc3ccc(Cl)c(Cl)c3)cc2)cc1` [Compound 6010], the IC50 against hNaMNAT-1 was over 600 µM; in the data set with HCC1937, 20 µM; with MDA-MB-436, 25 µM; in the data set on SUM159, 10 µM; in the data set on IMR90, over 200 µM; with HEK293 it was over 200 µM. Moreover, the IC50 in the data set with BEAS-23 and with Hep-G2 was over 200 µM throughout.
By MTD is commonly meant the highest dose tested that stayed within the study's limit of toxicity. The low end stands for a narrow tolerated range, the high end for a wide tolerated range. As for `O=C(Nc1ccc([N+](=O)[O-])cc1)Nc1ccc(S(=O)(=O)Nc2ccc(Cl)c(Cl)c2)cc1` [Compound 5824], at B. anthracis NADs, the “activity against NADs (in words)” value was “good activities”. Further, the IC50 at B. anthracis NADs (read-out: IC50) and on B. anthracis NADs (read-out: NADs IC50) was 10 µM throughout. Also, the “activity against B. anthracis (in words)” value in data set [1] is on record as “good activities”. Besides, the MIC in data set [1] (Bacillus anthracis, read-out: B.a. MIC (μM)) was found to be 1.9 µM (≈ 0.915 µg/mL); in the data set on B. anthracis it was 1.2 µg/mL (≈ 2.49 µM); with S. aureus, 10.8 µg/mL (≈ 22.4 µM); in the data set with E. faecalis, 14 µg/mL (≈ 29.1 µM); with B. cereus, 0.78 µg/mL (≈ 1.62 µM); with S. aureus MRSA, 5.5 µg/mL (≈ 11.4 µM). The MIC came to 10.8 µg/mL (≈ 22.4 µM) in the data set on E. faecium VRE and 3.6 µg/mL (≈ 7.48 µM) in the data set with S. pneumoniae. In [2], this compound returned an MTD of 25 mg/kg. Besides, the “time to highest plasma drug concentration” value is “about 12 hours” in data set [3] (25 mg/kg (Bid), second dose 8 hr after first, time after first dose); 2 h in data set [3] (25 mg/kg (QD), mouse plasma); 2 h in [3] (50 mg/kg (QD), mouse plasma).
As for `O=C(Nc1ccc(O)cc1)Nc1ccc(S(=O)(=O)Nc2ccc(Cl)c(Cl)c2)cc1` [Compound 6400], the IC50 against hNaMNAT-1 was 13 µM; in the data set on HCC1937, 95 µM; with MDA-MB-436 it was 95 µM; in the data set on SUM159 it was 50 µM; with IMR90, over 200 µM; with HEK293, over 200 µM. Moreover, the IC50 in the data set on BEAS-23 was over 200 µM; in the data set on Hep-G2, 112 µM.

The values above are taken from US20110275635A1 (priority 2009, published 2011).
